Experimental findings from patent US12383497B2, “Ready-to-use phenylephrine formulations and products” (INFORLIFE SA, priority 2023, dated 2025) are described below.

The series in a line: Effect of autoclaving (terminal sterilization) on the product. In kind it is physicochemical. The protocol: Batches of the phenylephrine composition of the present disclosure formulated as in Table 1 were manufactured for the study of the effect of autoclaving on product behavior by autoclaving at a target temperature T=121° C.±1° C. and time at different FOs according to USP <1222>, which is incorporated fully herein by reference.
The table below show the Critical Quality Attributes of the drug product. The objective of this study was to evaluate the quality of the proposed manufacturing process to determine whether the manufacturing process will endure the desired final product study.
The table below show the results of the autoclaving study using several batches of the phenylephrine hydrochloride product formulation of the disclosure, containing 0.08 mg/ml of phenylephrine HCL.

Counter-ions that a name gives are not always drawn.

As to `CNC[C@H](O)c1cccc(O)c1` [phenylephrine, benzene methanol, 3-hydroxy-α [(methyl amino)methyl]-hydrochloride (R)], the “effect of terminal sterilization by autoclaving” value is listed as “caused degradation”.
